# Laboratory results published in patent US20040132715A1, “Method to treat allergic rhinitis” (priority 2002, published 2004).
# Where “and” joins values, the source holds several entries; their conditions need not be identical. Equal values may be shown once.
# Assays:
# Type in all cases: in vivo
# [1] = test system: Zymosan Induced Peritonitis in Mice; assay: Zymosan induced peritonitis in mice (PMN influx into peritoneal cavity); conditions: for effect on PMN influx (in words): Imetit, thioperamide 5 mg/kg, s.c.; for PMN (10^6 per mouse), mean: group mean; for PMN (10^6 per mouse), mean / PMN (10^6 per mouse), single mice: s.c. at -15 min and +2 h (Compound 1 10 mg/kg; Imetit, Thioperamide 5 mg/kg), 1 mg zymosan A i.p.; for PMN (10^6 per mouse), single mice: lavage at 4 h
# Experimental: This is commonly used to induce peritonitis in mice and appears to act in a mast cell dependent manner. Male out-bred Swiss albino mice were purchased from Bantin and Kingman (T.O. strain; Hull, Humberside) and maintained on a standard chow pellet diet with tap water ad libitum and a 12:00 h light /dark cycle. All animals were housed for at least 3 days prior to experimentation to allow body weight to reach ˜30 g on the day of the experiment. […] Animals were briefly (30-60 s) anesthetized with halothane for all s.c. and i.p. treatments described below. Drugs were stored at room temperature, in the dark. On the day of the experiment, drugs were dissolved in sterile PBS as depicted below, and generously vortexed. […] Time −15 min: Compounds or PBS administered s.c. at the reported doses. Time 0: At time 0, mice received 1 mg zymosan A (Sigma) i.p. Time +2 h: Compounds or PBS administered s.c. at the reported doses. […] Peritoneal cavities were washed 4 h later with 3 mL of PBS containing 3 mM EDTA, and the number of migrated leukocytes determined, by taking an aliquot (100 μL) of the lavage fluid and diluting 1:10 in Turk's solution (0.01% crystal violet in 3% acetic acid). The samples were then vortexed and 10 μL of the stained cell solution were placed in a Neubauer haemocytometer. Differential cell counts were performed using a light microscope (Olympus B061). […] Statistical differences were determined by Anova followed by Bonferroni's post-hoc test.
# [2] = test system: Croton Oil Induced Topical Inflammation in Mice; assay: Croton oil induced topical inflammation in mice (ear swelling); conditions: for Difference in ear Thickness, Mean: group mean, s.c. x3 (Compound 1 10 mg/kg; Indomethacin 30 mg/kg), 6 h after croton oil
# [3] = test system: Sodium Urate Crystal Induced Peritonitis in Mice; assay: Sodium urate crystal (MSU) induced peritonitis in mice (PMN migration)
# Experimental: Such crystals are the primary cause of the inflammation associated with acute gouty arthritis.
# Male out-bred Swiss albino mice were purchased from Bantin and Kingman (T.O. strain; Hull, Humberside) and maintained on a standard chow pellet diet with tap water ad libitum and a 12:00 h light/dark cycle. All animals were housed for at least 3 days prior to experimentation to allow body weight to reach ˜30 g on the day of the experiment. For this particular experiment body weight was 30±1 (n=32).
# Compound 1 was stored at room temperature in the dark. […] Mice received 3 mg mono sodium urate crystals (MSU) given intra-peritoneally at time 0.
# Time +6 h: Peritoneal cavities were washed 6 h later with 3 mL of PBS containing 3 mM EDTA, and the number of migrated leukocytes determined, by taking an aliquot (100 μL) of the lavage fluid and diluting 1:10 in Turk's solution (0.01% crystal violet in 3% acetic acid). The samples were then vortexed and 10 μL of the stained cell solution were placed in a Neubauer hematocytometer. Differential cell counts were performed using a light microscope (Olympus B061). In view of their chromatic characteristics and their nucleus and cytoplasm appearance, cells polymorphonuclear cells (PMN, >95% neutrophils) could be easily differentiated
# Experimental groups are described below:
# Data are shown for single mice, and also shown as mean ±SE of (n) mice per group. Statistical differences were determined by Student's t test. A P value <0.05 was taken as significant.
# PMN influx into the peritoneal cavity was measured at the 6 h time-point after collection of the lavage fluids and specific staining as described in the experimental section.
SMILES,"effect on PMN influx (in words) ([1]; Compound 1 10 mg/kg, 4 h)","PMN (10^6 per mouse), mean ([1]; 4 h)","PMN (10^6 per mouse), single mice [1]","% inhib (PMN influx) ([1]; vs PBS group, Compound 1 10 mg/kg, Thioperamide 5 mg/kg s.c., 4 h)",effect on ear swelling (in words) ([2]; 10 mg/kg x 3 s.c.),"inhibition at 10 mg/kg ([2]; Mus musculus, sc, 6 h, read-out: % inhib (ear swelling)) [%]","Difference in ear Thickness, Mean [2] [× 0.01 mm]","Difference in ear Thickness, single mice ([2]; single mice, s.c. 30 min before, 2 and 4 h after croton oil (Compound 1 10 mg/kg; Indomethacin 30 mg/kg), measured 6 h after croton oil)","effect on PMN migration (in words) ([3]; 10 mg/kg s.c., 6 h)","PMN (10^6 per mouse), mean ([3]; group mean, 10 mg/kg s.c. at -15 min, +2 h and +4 h, 3 mg MSU crystals i.p., 6 h time-point)","PMN (10^6 per mouse), single mice ([3]; single mice, 10 mg/kg s.c. at -15 min, +2 h and +4 h, 3 mg MSU crystals i.p., 6 h time-point, 10 mg/kg)"
S=C(NC1CCCCC1)N1CCC(c2cnc[nH]2)CC1 [Thioperamide],significant inhibitory effect,9.3 10^6 per mouse,9.3 10^6 per mouse and 16.5 10^6 per mouse and 7.2 10^6 per mouse and 10.8 10^6 per mouse and 5.4 10^6 per mouse and 9.9 10^6 per mouse and 6.9 10^6 per mouse and 8.1 10^6 per mouse,(−46%),,,,,,,
"CN1CCN(C(=O)c2cc3cc(Cl)ccc3[nH]2)CC1 [Compound 1, (5-Chloro-1H-indol-2-yl)-(4-methyl-piperazin-1-yl)-methanone]",significantly reduced PMN influx,6.6 10^6 per mouse,9.9 10^6 per mouse and 3.6 10^6 per mouse and 9.3 10^6 per mouse and 3.3 10^6 per mouse and 8.1 10^6 per mouse and 5.1 10^6 per mouse and 6.9 10^6 per mouse,,significantly reduced the swelling,28,12.0,12 × 0.01 mm and 10 × 0.01 mm and 13 × 0.01 mm and 9 × 0.01 mm and 16 × 0.01 mm,significantly reduced PMN migration,6.8 10^6 per mouse,7.8 10^6 per mouse (2×) and 4.5 10^6 per mouse and 3.0 10^6 per mouse and 8.1 10^6 per mouse and 9.3 10^6 per mouse and 6.6 10^6 per mouse and 7.2 10^6 per mouse
N=C(N)SCCc1cnc[nH]1 [Imetit],inactive,17.3 10^6 per mouse,,,,,,,,,
"COc1ccc2c(c1)c(CC(=O)O)c(C)n2C(=O)c1ccc(Cl)cc1 [Indomethacin, reference compound]",,,,,,,10.0,,,,
